Source: ChEMBL document CHEMBL1201862, “PubChem BioAssay data set” (2004)
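The compound was tested at five concentrations on cells cultured in 96-well plates, with a 48-hour exposure period. Here, GI50 denotes the concentration required for 50% inhibition of growth.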 Calls of active or inactive are those of the source. No stated cut-off is given here; in the data, active = GI50 up to about 1.1 µM and inactive = higher. Non-standard residues stand in square brackets, D forms with d. Residues, ends and D or L forms follow the SMILES beside them. ξ: configuration not given here. *: point of attachment. ξNMeF = CNC(Cc1ccccc1)C(=O)O; NMeV = CN[C@H](C(=O)O)C(C)C; Boc = CC(C)(C)OC(=O)*; OBn = c1ccc(CO*)cc1

Assays:
Assay in all cases: inhibition of tumour cell growth, NCI panel, 48 h
OVCAR-5 = test system: OVCAR-5
786-0 = test system: 786-0
M14 = test system: M14
SF-268 = test system: SF-268
IGROV-1 = test system: IGROV-1
SN12C = test system: SN12C
SR = test system: SR
LOX IMVI = test system: LOX IMVI
HCT-15 = test system: HCT-15
OVCAR-3 = test system: OVCAR-3
SK-MEL-28 = test system: SK-MEL-28
OVCAR-8 = test system: OVCAR-8
HCT-116 = test system: HCT-116
HOP-92 = test system: HOP-92
HOP-62 = test system: HOP-62
SNB-19 = test system: SNB-19
A549 = test system: A549
NCI-H522 = test system: NCI-H522
CAKI-1 = test system: CAKI-1
SK-MEL-2 = test system: SK-MEL-2

Compound | GI50 (OVCAR-5) | GI50 (786-0) | GI50 (M14) | GI50 (SF-268) | GI50 (IGROV-1) | GI50 (SN12C) | GI50 (SR) | GI50 (LOX IMVI) | GI50 (HCT-15) [µM] | GI50 (OVCAR-3) | GI50 (SK-MEL-28) | GI50 (OVCAR-8) | GI50 (HCT-116) | GI50 (HOP-92) | GI50 (HOP-62) | GI50 (SNB-19) | GI50 (A549) | GI50 (NCI-H522) | GI50 (CAKI-1) | GI50 (SK-MEL-2)
COC1=C(N2CC2)C(=O)c2nc3n(c2C1=O)CCC3 | 1.26 µM (inactive) | 0.321 µM (active) | 0.22 µM (active) | 1.6 µM (inactive) | 1.43 µM (inactive) | 1.3 µM (inactive) | 0.357 µM (active) | 0.406 µM (active) | 0.368 | 0.393 µM (active) | 4.01 µM (inactive) | 1.35 µM (inactive) | 0.434 µM (active) | 3.33 µM (inactive) | 0.953 µM (active) | 1.39 µM (inactive) | 1.98 µM (inactive) | 0.147 µM (active) | – | –
C#CCOCCCC(=O)O | > 100 µM (inactive) | > 100 µM (inactive) | > 100 µM (inactive) | – | > 100 µM (inactive) | > 100 µM (inactive) | > 100 µM (inactive) | > 100 µM (inactive) | > 100 | > 100 µM (inactive) | > 100 µM (inactive) | > 100 µM (inactive) | > 100 µM (inactive) | > 100 µM (inactive) | > 100 µM (inactive) | > 100 µM (inactive) | > 100 µM (inactive) | – | > 100 µM (inactive) | > 100 µM (inactive)
COc1nc(NC2OCC(OC(C)=O)C(OC(C)=O)C2OC(C)=O)c(/N=C(\C)C(C)=O)c(=O)n1C (stereo not drawn) | > 100 µM (inactive) | – | > 100 µM (inactive) | > 100 µM (inactive) | > 100 µM (inactive) | > 100 µM (inactive) | > 100 µM (inactive) | > 100 µM (inactive) | > 100 | – | > 100 µM (inactive) | > 100 µM (inactive) | > 100 µM (inactive) | > 100 µM (inactive) | – | > 100 µM (inactive) | > 100 µM (inactive) | – | > 100 µM (inactive) | > 100 µM (inactive)
CC(=O)c1ccc(NC(=O)C(=O)CC(=O)c2sc(-n3nc(-c4ccccc4)cc3-c3ccccc3)nc2C)cc1 | > 100 µM (inactive) | > 100 µM (inactive) | > 100 µM (inactive) | > 100 µM (inactive) | > 100 µM (inactive) | > 100 µM (inactive) | > 100 µM (inactive) | > 100 µM (inactive) | > 100 | > 100 µM (inactive) | – | > 100 µM (inactive) | > 100 µM (inactive) | – | > 100 µM (inactive) | > 100 µM (inactive) | > 100 µM (inactive) | > 100 µM (inactive) | > 100 µM (inactive) | > 100 µM (inactive)
COc1cc(/C=C2\N=C(c3ccccc3)N(/N=C/c3cc4cc(C)ccc4nc3Cl)C2=O)ccc1O | > 100 µM (inactive) | 37.6 µM (inactive) | 42.1 µM (inactive) | 39.2 µM (inactive) | 30.1 µM (inactive) | 30 µM (inactive) | 18.9 µM (inactive) | 37 µM (inactive) | 40.1 | 38.9 µM (inactive) | > 100 µM (inactive) | 49.7 µM (inactive) | 20.4 µM (inactive) | 31.6 µM (inactive) | 49.3 µM (inactive) | 67.8 µM (inactive) | 37.5 µM (inactive) | – | 78 µM (inactive) | 12.9 µM (inactive)
Nc1nc(=O)[nH]c2c1cnn2Cc1ccccc1 | 1.47 µM (inactive) | – | > 100 µM (inactive) | > 100 µM (inactive) | > 100 µM (inactive) | > 100 µM (inactive) | > 100 µM (inactive) | > 100 µM (inactive) | > 100 | – | 1.88 µM (inactive) | > 100 µM (inactive) | > 100 µM (inactive) | > 100 µM (inactive) | – | > 100 µM (inactive) | > 100 µM (inactive) | – | > 100 µM (inactive) | > 100 µM (inactive)
Cc1cc(O)nc(NN2C(Cl)C(=O)C2c2ccc([N+](=O)[O-])cc2)n1 (stereo not drawn) | 25.1 µM (inactive) | – | 11 µM (inactive) | 13.1 µM (inactive) | 4.03 µM (inactive) | 11.1 µM (inactive) | 6.15 µM (inactive) | 5.96 µM (inactive) | 7.52 | 6.53 µM (inactive) | 11.9 µM (inactive) | 17.8 µM (inactive) | 9.38 µM (inactive) | 13.7 µM (inactive) | 7.76 µM (inactive) | 15.3 µM (inactive) | 14.7 µM (inactive) | – | – | 6.07 µM (inactive)
Cc1nc(C(N)=S)sc1C(=O)C/C(=N/N)C(=O)Nc1ccc(Cl)cc1 | > 100 µM (inactive) | 40.6 µM (inactive) | > 100 µM (inactive) | > 100 µM (inactive) | 16.5 µM (inactive) | > 100 µM (inactive) | > 100 µM (inactive) | 82.8 µM (inactive) | > 10 | 37.5 µM (inactive) | > 100 µM (inactive) | 84.1 µM (inactive) | > 100 µM (inactive) | – | 50.8 µM (inactive) | 72.4 µM (inactive) | > 100 µM (inactive) | 31 µM (inactive) | > 100 µM (inactive) | > 100 µM (inactive)
O=C(N/C(=C\c1ccccc1Cl)c1nc2ccccc2[nH]1)c1ccccc1 | 30.8 µM (inactive) | 32.7 µM (inactive) | 19.8 µM (inactive) | 32.7 µM (inactive) | 25.1 µM (inactive) | 16.7 µM (inactive) | 23.3 µM (inactive) | – | 25.8 | 29.7 µM (inactive) | 40.9 µM (inactive) | 27.5 µM (inactive) | – | 10.3 µM (inactive) | – | 29.3 µM (inactive) | 26.7 µM (inactive) | 22.8 µM (inactive) | 29.5 µM (inactive) | 23.5 µM (inactive)
CCOC(=O)c1nnc2c(C(=O)OCC)c3ccccc3n2c1N | > 100 µM (inactive) | 67 µM (inactive) | 5.97 µM (inactive) | 19.3 µM (inactive) | 1.12 µM (active) | 6.67 µM (inactive) | 6.92 µM (inactive) | 5.96 µM (inactive) | 7.66 | 4.46 µM (inactive) | 5.85 µM (inactive) | 5.16 µM (inactive) | 29.3 µM (inactive) | – | 68.9 µM (inactive) | 4.93 µM (inactive) | 10.5 µM (inactive) | 6.21 µM (inactive) | 7.48 µM (inactive) | 5.15 µM (inactive)
CCSCCC(N)C(=O)O (stereo not drawn) | > 100 µM (inactive) | > 100 µM (inactive) | > 100 µM (inactive) | > 100 µM (inactive) | > 100 µM (inactive) | > 100 µM (inactive) | > 100 µM (inactive) | > 100 µM (inactive) | > 100 | > 100 µM (inactive) | > 100 µM (inactive) | > 100 µM (inactive) | > 100 µM (inactive) | > 100 µM (inactive) | > 100 µM (inactive) | > 100 µM (inactive) | > 100 µM (inactive) | > 100 µM (inactive) | – | > 100 µM (inactive)
CCOc1ccc(/C=C2\N=C(c3ccccc3)OC2=O)cc1 | > 100 µM (inactive) | – | > 100 µM (inactive) | > 100 µM (inactive) | > 100 µM (inactive) | – | > 100 µM (inactive) | – | > 100 | > 100 µM (inactive) | > 100 µM (inactive) | > 100 µM (inactive) | – | > 100 µM (inactive) | > 100 µM (inactive) | > 100 µM (inactive) | > 100 µM (inactive) | 48.5 µM (inactive) | – | > 100 µM (inactive)
OCCN(CCO)c1ccc2c(c1)Cc1ccccc1-2 | 48.3 µM (inactive) | > 100 µM (inactive) | 32.2 µM (inactive) | 26.2 µM (inactive) | – | 52.1 µM (inactive) | 29.6 µM (inactive) | 29.9 µM (inactive) | 43.4 | 17 µM (inactive) | 64.3 µM (inactive) | 52.5 µM (inactive) | 21 µM (inactive) | 21.9 µM (inactive) | 73.5 µM (inactive) | > 100 µM (inactive) | 37.8 µM (inactive) | – | 10.3 µM (inactive) | 26.7 µM (inactive)
CC(OC(=O)NCn1cc(-c2ccccc2)nn1)c1ccccc1 (stereo not drawn) | 49.3 µM (inactive) | 88.7 µM (inactive) | 17.8 µM (inactive) | – | 35.4 µM (inactive) | 97.1 µM (inactive) | 30.2 µM (inactive) | 75 µM (inactive) | 50.6 | – | 97.9 µM (inactive) | 44.4 µM (inactive) | 27.9 µM (inactive) | 56.2 µM (inactive) | > 100 µM (inactive) | > 100 µM (inactive) | 35.7 µM (inactive) | 27.4 µM (inactive) | > 100 µM (inactive) | 37.8 µM (inactive)
COc1cc(/C=C/C(=O)OCCc2ccccc2)ccc1O | 18.2 µM (inactive) | 15.7 µM (inactive) | 15 µM (inactive) | 20.5 µM (inactive) | 14.1 µM (inactive) | 19.8 µM (inactive) | 24.7 µM (inactive) | 14.5 µM (inactive) | 21.7 | 18.1 µM (inactive) | 13.9 µM (inactive) | 28.5 µM (inactive) | 17.7 µM (inactive) | – | 16.3 µM (inactive) | 17.9 µM (inactive) | 18.4 µM (inactive) | 5.4 µM (inactive) | 15.9 µM (inactive) | 21.6 µM (inactive)
CC(C)[C@@H](C(=O)N(C)[C@H](C(=O)N1CCC[C@H]1C(=O)OCc1ccccc1)C(C)C)N(C)C(=O)C(Cc1ccccc1)N(C)C(=O)[C@H](NC(=O)OC(C)(C)C)C(C)C (stereo partly drawn) (Boc-[dV][ξNMeF][NMeV][NMeV]P-OBn) | > 31.6 µM (inactive) | > 46.8 µM (inactive) | – | > 31.6 µM (inactive) | > 31.6 µM (inactive) | – | 19.7 µM (inactive) | > 31.6 µM (inactive) | > 31.6 | > 34.5 µM (inactive) | > 31.6 µM (inactive) | > 31.6 µM (inactive) | > 31.6 µM (inactive) | 8.34 µM (inactive) | > 31.6 µM (inactive) | > 31.6 µM (inactive) | > 31.6 µM (inactive) | – | > 31.6 µM (inactive) | > 31.6 µM (inactive)
